In the supplement of paper PMC10307832:

Tests used:
Experiment in all cases: relative viability (nuclei count vs DMSO), 5 days (fraction); higher = more cells survive
Zebularine + Pemetrexed = compound: O=c1ncccn1[C@@H]1O[C@H](CO)[C@@H](O)[C@H]1O [Zebularine] + Nc1nc2[nH]cc(CCc3ccc(C(=O)N[C@@H](CCC(=O)O)C(=O)O)cc3)c2c(=O)[nH]1 [Pemetrexed] (partner 0.2 µM)
Summary of the method: (§1)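 After 5 days of treatment, lung cancer cells in 1536-well plates were fixed and stained in a single step (final 0.05% Triton X-100, 1% formaldehyde, 1 ug/ml Hoechst) and their nuclei counted on 4× images. Treatment had been applied by pin tool the day after seeding as one drug alone or as a fixed anchor-drug dose with five library-drug doses (not always all listed) in √10 steps. Relative viability is the nuclei count of treated wells divided by that of vehicle wells, and values are medians of duplicate plates.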

Zebularine + Olaparib = compound: O=c1ncccn1[C@@H]1O[C@H](CO)[C@@H](O)[C@H]1O [Zebularine] + O=C(c1cc(Cc2n[nH]c(=O)c3ccccc23)ccc1F)N1CCN(C(=O)C2CC2)CC1 [Olaparib] (partner 8 µM)
Summary of the method: as §1

BI-D1870 + Linsitinib = compound: CC(C)CCN1c2nc(Nc3cc(F)c(O)c(F)c3)ncc2N(C)C(=O)C1C [BI-D1870] + C[C@]1(O)C[C@@H](c2nc(-c3ccc4ccc(-c5ccccc5)nc4c3)c3c(N)nccn32)C1 [Linsitinib] (partner 1 µM)
Summary of the method: as §1

Zebularine + Crizotinib = compound: O=c1ncccn1[C@@H]1O[C@H](CO)[C@@H](O)[C@H]1O [Zebularine] + C[C@@H](Oc1cc(-c2cnn(C3CCNCC3)c2)cnc1N)c1c(Cl)ccc(F)c1Cl [Crizotinib] (partner 1 µM)
Summary of the method: as §1

| Cell Line | relative viability (Zebularine + Pemetrexed; first compound 1 µM) | relative viability (Zebularine + Pemetrexed; first compound 3.162 µM) | relative viability (Zebularine + Pemetrexed; first compound 10 µM) | relative viability (Zebularine + Pemetrexed; first compound 31.62 µM) | relative viability (Zebularine + Pemetrexed; first compound 100 µM) | relative viability (Zebularine + Olaparib; first compound 1 µM) | relative viability (Zebularine + Olaparib; first compound 3.162 µM) | relative viability (Zebularine + Olaparib; first compound 10 µM) | relative viability (Zebularine + Olaparib; first compound 31.62 µM) | relative viability (Zebularine + Olaparib; first compound 100 µM) | relative viability (BI-D1870 + Linsitinib; first compound 0.04 µM) | relative viability (BI-D1870 + Linsitinib; first compound 0.1265 µM) | relative viability (BI-D1870 + Linsitinib; first compound 0.4 µM) | relative viability (BI-D1870 + Linsitinib; first compound 1.265 µM) | relative viability (BI-D1870 + Linsitinib; first compound 4 µM) | relative viability (Zebularine + Crizotinib; first compound 1 µM) | relative viability (Zebularine + Crizotinib; first compound 3.162 µM) | relative viability (Zebularine + Crizotinib; first compound 31.62 µM) | relative viability (Zebularine + Crizotinib; first compound 100 µM) | relative viability (Zebularine + Crizotinib; first compound 10 µM) |
| --- | --- | --- | --- | --- | --- | --- | --- | --- | --- | --- | --- | --- | --- | --- | --- | --- | --- | --- | --- | --- |
| HARA | 0.295 | 0.253 | 0.214 | 0.324 | 0.307 | 0.901 | 0.491 | 0.926 | 0.647 | 0.437 | 1.1 | 0.897 | 1.03 | 1.09 | 0.873 | 1.17 | 1.11 | 1.17 | 0.834 |  |
| NCI-H838 | 0.259 | 0.267 | 0.234 | 0.221 | 0.17 | 0.856 | 0.798 | 0.546 | 0.38 | 0.266 | 1.13 | 0.962 | 0.998 | 1.13 | 0.957 | 0.93 | 0.838 | 0.65 | 0.3 | 0.493 |
| NCI-H1755 | 0.365 | 0.37 | 0.438 | 0.638 | 0.397 | 0.911 | 0.891 | 0.729 | 0.74 | 0.472 | 0.982 | 0.975 | 1.04 | 0.967 | 0.941 | 1.03 | 0.872 | 0.864 | 0.466 | 0.612 |
| HCC-78 | 0.88 | 0.941 |  | 0.882 | 0.978 | 0.76 | 0.652 |  | 0.444 | 0.291 | 0.54 | 0.547 | 0.492 | 0.533 | 0.406 | 0.336 | 0.335 | 0.359 | 0.252 | 0.298 |
| IA-LM |  |  |  |  |  | 0.889 | 0.828 |  | 1.04 | 0.401 | 0.824 | 0.229 | 0.733 | 0.983 | 0.604 | 1.07 | 0.718 | 1.1 | 0.609 |  |
| NCI-H322M | 0.595 | 0.565 | 0.501 | 0.635 | 0.59 | 0.544 | 0.673 | 0.597 | 0.581 | 0.555 | 1.05 | 0.904 | 0.826 | 0.879 | 0.883 | 0.969 | 0.897 | 0.821 | 0.523 | 0.804 |
| NCI-H3122 | 0.189 | 0.183 | 0.175 | 0.225 | 0.225 | 0.727 | 0.631 | 0.358 | 0.478 | 0.369 | 1.06 | 0.925 | 0.988 | 0.974 | 1.02 | 0.268 | 0.248 | 0.298 | 0.235 | 0.243 |
| NCI-H1793 | 1.08 | 0.92 | 0.292 | 0.347 | 0.287 | 1.02 | 0.906 | 0.37 | 0.333 | 0.27 | 0.824 | 0.578 | 0.794 | 0.84 | 0.932 |  |  |  |  |  |
| ChaGo-K-1 | 0.269 | 0.257 | 0.254 | 0.242 | 0.203 | 0.332 | 0.32 | 0.289 | 0.202 | 0.187 |  |  |  |  |  | 1.09 | 1 | 0.406 | 0.39 | 0.603 |
| NCI-H2342 | 0.795 | 0.73 | 0.572 | 0.749 | 0.628 | 0.462 | 0.468 | 0.388 | 0.437 | 0.365 |  |  |  |  |  |  |  |  |  |  |
| NCI-H1299 |  |  |  |  |  | 1.06 | 0.893 | 0.852 | 0.805 | 0.447 | 1.04 | 0.909 | 0.995 | 1.02 | 0.933 | 0.963 | 0.921 | 0.893 | 0.566 | 0.788 |
| NCI-H1650 | 0.381 | 0.35 | 0.387 | 0.523 | 0.33 | 0.731 | 0.642 | 0.634 | 0.912 | 0.39 |  |  |  |  |  | 1.04 | 0.788 | 1.13 | 0.86 |  |
| SW 900 | 0.534 | 0.483 |  | 0.53 | 0.41 | 1.04 | 0.889 |  | 0.773 | 0.479 |  |  |  |  |  |  |  |  |  |  |
| NCI-H727 |  |  |  |  |  | 0.728 | 0.886 | 0.732 | 0.68 | 0.775 | 0.323 | 0.328 | 0.252 | 0.371 | 0.261 | 0.927 | 0.613 | 0.947 | 0.881 | 0.638 |
| NCI-H1648 | 0.652 | 0.613 | 0.518 | 0.804 | 0.683 | 0.588 | 0.852 | 0.643 | 0.7 | 0.471 |  |  |  |  |  |  |  |  |  |  |
| NCI-H522 | 0.888 | 1.1 | 0.967 | 1.03 | 0.95 | 0.746 | 0.647 | 0.577 | 0.546 | 0.573 |  |  |  |  |  |  |  |  |  |  |
| NCI-H1395 | 1.05 | 0.787 | 0.661 | 0.749 | 0.489 | 0.465 | 0.47 | 0.558 | 0.438 | 0.448 | 1.11 | 0.922 | 1.14 | 1.2 | 0.85 |  |  |  |  |  |
| A549 |  |  |  |  |  | 0.475 | 0.165 | 0.163 | 0.156 | 0.0971 | 0.703 | 0.57 | 0.588 | 0.649 | 0.573 | 0.847 | 0.846 | 0.228 | 0.164 | 0.478 |
| NCI-H2170 | 0.273 | 0.289 | 0.273 | 0.27 | 0.221 | 0.707 | 0.561 | 0.414 | 0.364 | 0.166 |  |  |  |  |  | 1.31 | 1.13 | 0.981 | 0.517 | 0.7 |
| NCI-H1563 | 0.896 | 0.717 | 0.689 | 0.728 | 0.791 |  |  |  |  |  | 1.4 | 1.1 | 1.13 | 1.07 | 1.19 | 0.877 | 0.873 | 0.935 | 0.828 | 0.849 |
| ABC-1 |  |  |  |  |  | 0.782 | 0.696 | 0.666 | 0.702 | 0.522 | 0.857 | 0.835 | 0.718 | 0.946 | 0.782 | 1.04 | 1.01 | 0.779 | 0.565 | 0.812 |
